# In patent US8008303B2, “Biphenyl derivatives and their use in treating hepatitis C” (AstraZeneca AB, priority 2005, dated 2011):
# Read-outs that look alike come from different tables or passages of the source.
# Key:
# [1] = system: HCV replicon cells Huh 9B; assay: HCV replicon assay (luciferase readout); format: cell-based
# Protocol: (§1) HCV replicon cells Huh 9B (ReBlikon), containing the firefly luciferase-ubiquitin-neomycin phosphotransferase fusion protein and EMCV-IRES driven HCV polyprotein with cell culture adaptive mutations.
# Cells were cultured at 37° C. in a 5% CO2 environment and split twice a week on seeding at 2×10^6 cells/flask on day 1 and 1×10^6 3 days later. G418 at 0.5 mg/ml was added to the culture medium but not the assay medium.
# The culture medium consisted of DMEM with […] glucose and glutamax (Gibco 61965-026) supplemented with 1× non-essential amino acids (Invitrogen 11140-035), penicillin (100 IU/ml)/streptomycin (100 μg/ml) (Invitrogen 15140-122), FCS (10%, 50 ml) and 1 mg/ml G418 (Invitrogen 10131-027) & 10% Australian foetal calf serum (Invitrogen 10099-141).
# A flask of cells was trypsinised and a cell count carried out. Cells were diluted to 100,000 cells/ml and 100 μl of this used to seed one opaque white 96-well plate (for the replicon assay) and one flat-bottomed clear plate (for the tox assay) for every seven compounds to be tested for IC50. Wells G12 and H12 were left empty in the clear plate as the blank. Plates were then incubated at 37° C. in a 5% CO2 environment for 24 h.
# (§2) On the following day compound dilutions are made up in medium at twice their desired final concentration in a clear round bottomed plate. All dilutions have a final DMSO concentration of 1%.
# Once the dilution plate had been made up, controls and compounds were transferred to the assay plate (containing the cells) at 100 μl /well in duplicate plates. Exception: no compound was added to wells A1 and A2 of either plate and 100 μl of 1% DMSO was added to these instead. Plates were then incubated at 37° C. with 5% CO2 for 72 h.
# At the end of the incubation time, the cells in the white plate were harvested by washing 23.5 mM beetle luciferin (Promega E1603), 26 mM ATP (Sigma 0-2060) in […] Tris buffer pH 7.8 aliquoted and stored at −80 C was thawed and diluted 1:50 in luciferase assay buffer (20 mM Tricine (Sigma T-0377), 1.07 mM magnesium carbonate hydroxide (Sigma M-5671), 0.1 mM EDTA (Sigma E-5134), 2.67 mM MgSO4 (BDH 101514Y), 33.3 mM dithiothreitol (Sigma 150460) pH 7.8).
# The M injector of the microplate luminometer (Lmax, Molecular Devices) was primed with 5×300 μl injections of the diluted substrate. After 5-60 min incubation in lysis buffer at room temperature, a plate was inserted into the luminometer and 100 μl luciferase assay reagent was added by the injector on the luminometer. The signal was measured using a 1 second delay followed by a 4 second measurement programme.
# [2] = system: HCV replicon cells Huh 9B; format: cell-based
# Protocol: as §1
# A flask of cells was trypsinised and a cell count carried out. […] Wells G12 and H12 were left empty in the clear plate as the blank. Plates were then incubated at 37° C. in a 5% CO2 environment for 24 h.
# as §2
# Exception: no compound was added to wells A1 and A2 of either plate and 100 μl of 1% DMSO was added to these instead. Plates were then incubated at 37° C. with 5% CO2 for 72 h.
# The clear plate was stained with 100 μl 0.5% methylene blue in 50% ethanol at room temperature for 1 h, followed by solvation of the absorbed methylene blue in 100 μl per well of 1% lauroylsarcosine. Absorbance of the plate was measured on a microplate spectrophotometer (Molecular Devices) and the absorbance for each concentration of compound expressed as a proportion of the relative DMSO control.
structure (smiles),measurement,setting,value
"Cc1ccc(C(=O)Nc2ccc(N3CCOCC3)cc2)cc1-c1ccc(C(=O)NCc2cccc(OC(F)(F)F)c2)cc1 [Example 41, 6-Methyl-biphenyl-3,4′-dicarboxylic acid 3-[(4-morpholin-4-yl-phenyl)-amide] 4′-(3-trifluoromethoxy-benzylamide)]",IC50,[1],< 1000 nM
same,TD50,[2],** (key: * < 50 μM; ** > 50 μM)
"Cc1ccc(C(=O)Nc2ccc(N3CCOCC3)cc2)cc1-c1ccc(C(=O)NCc2ccc(Cl)c(C(F)(F)F)c2)cc1 [Example 42, 6-Methyl-biphenyl-3,4′-dicarboxylic acid 4′-(4-chloro-3-trifluoromethyl-benzylamide) 3-[(4-morpholin-4-yl-phenyl)-amide]]",IC50,[1],< 1000 nM
same,TD50,[2],** (key: * < 50 μM; ** > 50 μM)
"Cc1ccc(CNC(=O)c2ccc(-c3cc(C(=O)Nc4ccc(N5CCOCC5)cc4)ccc3C)cc2)cc1Cl [Example 43, 6-Methyl-biphenyl-3,4′-dicarboxylic acid 4′-(3-chloro-4-methyl-benzylamide) 3-[(4-morpholin-4-yl-phenyl)-amide]]",IC50,[1],< 1000 nM
same,TD50,[2],** (key: * < 50 μM; ** > 50 μM)
"Cc1ccc(C(=O)Nc2ccc(N3CCOCC3)cc2)cc1-c1ccc(C(=O)Nc2ccc3[nH]ccc3c2)cc1 [Example 45, 6-Methyl-biphenyl-3,4′-dicarboxylic acid 4′-[(1H-indol-5-yl)-amide] 3-[(4-morpholin-4-yl-phenyl)-amide]]",IC50,[1],1000 to 5000 nM
same,TD50,[2],** (key: * < 50 μM; ** > 50 μM)
"Cc1ccc(C(=O)Nc2ccc(N3CCOCC3)cc2)cc1-c1ccc(C(=O)Nc2ccc3ncsc3c2)cc1 [Example 46, 6-Methyl-biphenyl-3,4′-dicarboxylic acid 4′-benzothiazol-6-ylamide 3-[(4-morpholin-4-yl-phenyl)-amide]]",IC50,[1],> 5000 nM
same,TD50,[2],** (key: * < 50 μM; ** > 50 μM)
"Cc1ccc(C(=O)Nc2ccc(N3CCOCC3)cc2)cc1-c1ccc(C(=O)NCc2cccc(CNC(=O)OC(C)(C)C)c2)cc1 [Example 47, [3-({[2′-Methyl-5′-(4-morpholin-4-yl-phenylcarbamoyl)-biphenyl-4-carbonyl]-amino}-methyl)-benzyl]-carbamic acid tert-butyl ester]",IC50,"[1]; Hepatitis C virus, 72 h, concentration reducing replicon level (luciferase activity) by 50% vs untreated cell control, 72 h incubation",> 5000 nM
same,TD50,"[2]; concentration reducing total cell area by 50% relative to DMSO controls, methylene blue, absorbance 620 nm, 72 h incubation",** (** > 50 μM)
"Cc1ccc(C(=O)Nc2ccc(N3CCOCC3)cc2)cc1-c1ccc(C(=O)Nc2cccc3cc[nH]c23)cc1 [Example 48, 6-Methyl-biphenyl-3,4′-dicarboxylic acid 4′-[(1H-indol-7-yl)-amide] 3-[(4-morpholin-4-yl-phenyl)-amide]]",IC50,[1],1000 to 5000 nM
same,TD50,[2],** (key: * < 50 μM; ** > 50 μM)
"Cc1ccc(C(=O)Nc2ccc(N3CCOCC3)cc2)cc1-c1ccc(C(=O)NCc2ccccc2Sc2ccccc2CO)cc1 [Example 49, 6-Methyl-biphenyl-3,4′-dicarboxylic acid 4′-[2-(2-hydroxymethyl-phenylsulfanyl)-benzylamide] 3-[(4-morpholin-4-yl-phenyl)-amide]]",IC50,[1],< 1000 nM
same,TD50,[2],** (key: * < 50 μM; ** > 50 μM)
"Cc1ccc(C(=O)Nc2ccc(N3CCOCC3)cc2)cc1-c1ccc(C(=O)Nc2ccc(CN3CCS(=O)(=O)CC3)cc2)cc1 [Example 50, 6-Methyl-biphenyl-3,4′-dicarboxylic acid 4′-{[4-(1,1-dioxo-1lambda*6*-thiomorpholin-4-ylmethyl)-phenyl]-amide} 3-[(4-morpholin-4-yl-phenyl)-amide]]",IC50,[1],< 1000 nM
same,TD50,[2],** (key: * < 50 μM; ** > 50 μM)
"Cc1ccc(C(=O)Nc2ccc(N3CCOCC3)cc2)cc1-c1ccc(C(=O)N[C@H](CO)Cc2c[nH]c3ccccc23)cc1 [Example 51, 6-Methyl-biphenyl-3,4′-dicarboxylic acid 4′-{[(S)-1-hydroxymethyl-2-(1H-indol-3-yl)-ethyl]-amide} 3-[(4-morpholin-4-yl-phenyl)-amide]]",IC50,[1],1000 to 5000 nM
same,TD50,[2],** (key: * < 50 μM; ** > 50 μM)
"Cc1ccc(C(=O)Nc2ccc(N3CCOCC3)cc2)cc1-c1ccc(C(=O)NCc2cccc(Br)c2)cc1 [Example 52, 6-Methyl-biphenyl-3,4′-dicarboxylic acid 4′-(3-bromo-benzylamide) 3-[(4-morpholin-4-yl-phenyl)-amide]]",IC50,[1],1000 to 5000 nM
same,TD50,[2],** (key: * < 50 μM; ** > 50 μM)
"Cc1ccc(C(=O)Nc2ccc(N3CCOCC3)cc2)cc1-c1ccc(C(=O)Nc2ccc(N)cc2)cc1 [Example 53, 6-Methyl-biphenyl-3,4′-dicarboxylic acid 4′-[(4-amino-phenyl)-amide] 3-[(4-morpholin-4-yl-phenyl)-amide]]",IC50,[1],1000 to 5000 nM
same,TD50,[2],** (key: * < 50 μM; ** > 50 μM)
"CNS(=O)(=O)Cc1ccc(NC(=O)c2ccc(-c3cc(C(=O)Nc4ccc(N5CCOCC5)cc4)ccc3C)cc2)cc1 [Example 54, 6-Methyl-biphenyl-3,4′-dicarboxylic acid 4′-[(4-methylsulfamoylmethyl-phenyl)-amide] 3-[(4-morpholin-4-yl-phenyl)-amide]]",IC50,[1],1000 to 5000 nM
same,TD50,[2],** (key: * < 50 μM; ** > 50 μM)
"Cc1ccc(C(=O)Nc2ccc(N3CCOCC3)cc2)cc1-c1ccc(C(=O)Nc2cc(Br)cc3cc[nH]c23)cc1 [Example 55, 6-Methyl-biphenyl-3,4′-dicarboxylic acid 4′-[(5-bromo-1H-indol-7-yl)-amide] 3-[(4-morpholin-4-yl-phenyl)-amide]]",IC50,[1],1000 to 5000 nM
same,TD50,[2],** (key: * < 50 μM; ** > 50 μM)
"Cc1ccc(C(=O)Nc2ccc(N3CCOCC3)cc2)cc1-c1ccc(C(=O)Nc2ccc(-c3cc[nH]n3)cc2)cc1 [Example 56, 6-Methyl-biphenyl-3,4′-dicarboxylic acid 3-[(4-morpholin-4-yl-phenyl)-amide] 4′-{[4-(1H-pyrazol-3-yl)-phenyl]-amide}]",IC50,[1],< 1000 nM
same,TD50,[2],* (key: * < 50 μM; ** > 50 μM)
"Cc1ccc(C(=O)Nc2ccc(N3CCOCC3)cc2)cc1-c1ccc(C(=O)NCc2cccc(Cl)c2F)cc1 [Example 57, 6-Methyl-biphenyl-3,4′-dicarboxylic acid 4′-(3-chloro-2-fluoro-benzylamide) 3-[(4-morpholin-4-yl-phenyl)-amide]]",IC50,[1],1000 to 5000 nM
same,TD50,[2],** (key: * < 50 μM; ** > 50 μM)
"Cc1ccc(C(=O)Nc2ccc(N3CCOCC3)cc2)cc1-c1ccc(C(=O)Nc2ccc(C(=O)N3CCCCC3)cc2)cc1 [Example 58, 6-Methyl-biphenyl-3,4′-dicarboxylic acid 3-[(4-morpholin-4-yl-phenyl)-amide] 4′-{[4-(piperidine-1-carbonyl)-phenyl]-amide}]",IC50,[1],1000 to 5000 nM
same,TD50,[2],** (key: * < 50 μM; ** > 50 μM)
"O=C(Nc1ccc2[nH]ccc2c1)c1ccc(-c2cccc(C(=O)Nc3ccc(N4CCOCC4)cc3)c2)cc1 [Example 59, Biphenyl-3,4′-dicarboxylic acid 4′-[(1H-indol-5-yl)-amide] 3-[(4-morpholin-4-yl-phenyl)-amide]]",IC50,[1],1000 to 5000 nM
same,TD50,[2],** (key: * < 50 μM; ** > 50 μM)
"O=C(Nc1ccc2cc[nH]c2c1)c1ccc(-c2cccc(C(=O)Nc3ccc(N4CCOCC4)cc3)c2)cc1 [Example 60, Biphenyl-3,4′-dicarboxylic acid 4′-[(1H-indol-6-yl)-amide] 3-[(4-morpholin-4-yl-phenyl)-amide]]",IC50,[1],< 1000 nM
same,TD50,[2],* (key: * < 50 μM; ** > 50 μM)
